These molecules were tested against T1, human adenosine A2A receptor (Homo sapiens, UniProt P29274) (assay: [3H]-SCH-58261 binding assay, human adenosine A2A receptor (CHO cell membranes, SPA)). Settings: [3H]-SCH-58261 displacement; list of examples 10-108; read-out: hA2a Ki.
T1 construct: expressed in transfected cells; host or cells: CHO cells, semliki forest virus expression system; washed membranes
Method: Human Adenosine A2A Receptor
The human adenosine A2A receptor was recombinantly expressed in chinese hamster ovary (CHO) cells using the semliki forest virus expression system. Cells were harvested, washed twice by centrifugation, homogenized and again washed by centrifugation. The final washed membrane pellet was suspended in a Tris (50 mM) buffer containing 120 mM NaCl, 5 mM KCl, 2 mM CaCl2 and 10 mM MgCl2 (pH 7.4) (buffer A). […] Compounds were tested at 10 concentrations from 10 μM-0.3 nM. All assays were conducted in duplicate and repeated at least two times. Assay plates were incubated for 1 hour at room temperature before centrifugation and then bound ligand determined using a Packard Topcount scintillation counter. IC50 values were calculated using a non-linear curve fitting program and Ki values calculated using the Cheng-Prussoff equation.

T1 sequence (P29274 whole entry): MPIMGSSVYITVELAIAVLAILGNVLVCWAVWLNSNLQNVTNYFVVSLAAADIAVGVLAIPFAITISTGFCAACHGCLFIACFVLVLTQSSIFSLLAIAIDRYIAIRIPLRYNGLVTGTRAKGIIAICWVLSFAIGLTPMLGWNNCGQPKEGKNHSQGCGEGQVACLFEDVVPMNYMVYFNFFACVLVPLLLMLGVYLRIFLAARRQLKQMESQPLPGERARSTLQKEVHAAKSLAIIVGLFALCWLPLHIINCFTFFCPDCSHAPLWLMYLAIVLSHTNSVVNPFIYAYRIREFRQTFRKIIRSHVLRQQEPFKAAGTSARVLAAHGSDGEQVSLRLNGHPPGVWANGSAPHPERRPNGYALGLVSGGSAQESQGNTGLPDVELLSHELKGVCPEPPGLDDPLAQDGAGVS

| Structure (SMILES) | Ki |
| --- | --- |
| CC1CCCCN1C(=O)c1cc(N)c2nc(-c3ccccc3)nn2c1 (stereo not shown) [Example 72, (8-Amino-2-phenyl-[1,2,4]triazolo[1,5-a]pyridin-6-yl)-(2-methyl-piperidin-1-yl)-methanone] | 361 nM |
| CCN(CC)C(=O)C1CCCN(C(=O)c2cc(N)c3nc(-c4ccccc4)nn3c2)C1 (stereo not shown) [Example 73, 1-(8-Amino-2-phenyl-[1,2,4]triazolo[1,5-a]pyridine-6-carbonyl)-piperidine-3-carboxylic acid diethylamide] | 998 nM |
| COC[C@@H]1CCCN1C(=O)c1cc(N)c2nc(-c3ccccc3)nn2c1 [Example 74, (8-Amino-2-phenyl-[1,2,4]triazolo[1,5-a]pyridin-6-yl)-(2-methoxymethyl-pyrrolidin-1-yl)-methanone] | 196 nM |
| CN(C)C(=O)[C@@H]1CCCN1C(=O)c1cc(N)c2nc(-c3ccccc3)nn2c1 [Example 76, 1-(8-Amino-2-phenyl-[1,2,4]triazolo[1,5-a]pyridine-6-carbonyl)-pyrrolidine-2-carboxylic acid dimethylamide] | 420 nM |
| CN(C)C(=O)CN(C)C(=O)c1cc(N)c2nc(-c3ccccc3)nn2c1 [Example 77, 8-Amino-2-phenyl-[1,2,4]triazolo[1,5-a]pyridine-6-carboxylic acid dimethylcarbamoyl-methyl-methyl-amide] | 674 nM |
| CC1CCCN(C(=O)c2cc(N)c3nc(-c4ccccc4)nn3c2)C1 (stereo not shown) [Example 78, (8-Amino-2-phenyl-[1,2,4]triazolo[1,5-a]pyridin-6-yl)-(3-methyl-piperidin-1-yl)-methanone] | 385 nM |
| CCCN(C)C(=O)c1cc(N)c2nc(-c3ccccc3)nn2c1 [Example 79, 8-Amino-2-phenyl-[1,2,4]triazolo[1,5-a]pyridine-6-carboxylic acid methyl-propyl-amide] | 886 nM |
| Nc1cc(C(=O)N2CC=CCC2)cn2nc(-c3ccccc3)nc12 [Example 80, (8-Amino-2-phenyl-[1,2,4]triazolo[1,5-a]pyridin-6-yl)-(3,6-dihydro-2H-pyridin-1-yl)-methanone] | 289 nM |
| CN(CCc1ccccc1)C(=O)c1cc(N)c2nc(-c3ccccc3)nn2c1 [Example 81, 8-Amino-2-phenyl-[1,2,4]triazolo[1,5-a]pyridine-6-carboxylic acid methyl-phenethyl-amide] | 524 nM |
| CCN(CC)C(=O)c1cc(N)c2nc(-c3ccc(C)o3)nn2c1 [Example 82, 8-Amino-2-(5-methyl-furan-2-yl)-[1,2,4]triazolo[1,5-a]pyridine-6-carboxylic acid diethylamide] | 131 nM |
| CCN(CCOC)C(=O)c1cc(N)c2nc(-c3ccc(C)o3)nn2c1 [Example 87, 8-Amino-2-(5-methyl-furan-2-yl)-[1,2,4]triazolo[1,5-a]pyridine-6-carboxylic acid ethyl-(2-methoxy-ethyl)-amide] | 104 nM |
| CCCN(C)C(=O)c1cc(N)c2nc(-c3ccc(C)o3)nn2c1 [Example 89, 8-Amino-2-(5-methyl-furan-2-yl)-[1,2,4]triazolo[1,5-a]pyridine-6-carboxylic acid methyl-propyl-amide] | 178 nM |
| Cc1ccc(-c2nc3c(N)cc(C(=O)N4CCSCC4)cn3n2)o1 [Example 90, [8-Amino-2-(5-methyl-furan-2-yl)-[1,2,4]triazolo[1,5-a]pyridin-6-yl]-thiomorpholin-4-yl-methanone] | 140 nM |

Results, then the molecule that gave them:

| Ki | Structure (SMILES) |
| --- | --- |
| 112 nM | Cc1ccc(-c2nc3c(N)cc(C(=O)N(C)CCc4ccccc4)cn3n2)o1 [Example 91, 8-Amino-2-(5-methyl-furan-2-yl)-[1,2,4]triazolo[1,5-a]pyridine-6-carboxylic acid methyl-phenethyl-amide] |
| 249 nM | Cc1ccc(-c2nc3c(N)cc(C(=O)N4CC(C)OC(C)C4)cn3n2)o1 (stereo not shown) [Example 92, [8-Amino-2-(5-methyl-furan-2-yl)-[1,2,4]triazolo[1,5-a]pyridin-6-yl]-(2,6-dimethyl-morpholin-4-yl)-methanone] |
| 322 nM | CCN(CC)C(=O)c1cc(N)c2nc(-c3ccc(C)s3)nn2c1 [Example 93, 8-Amino-2-(5-methyl-thiophen-2-yl)-[1,2,4]triazolo[1,5-a]pyridine-6-carboxylic acid diethylamide] |
| 213 nM | Cc1ccc(-c2nc3c(N)cc(C(=O)N4CCCC4)cn3n2)s1 [Example 94, [8-Amino-2-(5-methyl-thiophen-2-yl)-[1,2,4]triazolo[1,5-a]pyridin-6-yl]-pyrrolidin-1-yl-methanone] |
| 225 nM | Cc1ccc(-c2nc3c(N)cc(C(=O)N4CCCCC4)cn3n2)s1 [Example 95, [8-Amino-2-(5-methyl-thiophen-2-yl)-[1,2,4]triazolo[1,5-a]pyridin-6-yl]-piperidin-1-yl-methanone] |
| 154 nM | Cc1ccc(-c2nc3c(N)cc(C(=O)N4CCCC4C)cn3n2)s1 (stereo not shown) [Example 96, [8-Amino-2-(5-methyl-thiophen-2-yl)-[1,2,4]triazolo[1,5-a]pyridin-6-yl]-(2-methyl-pyrrolidin-1-yl)-methanone] |
| 220 nM | Cc1ccc(-c2nc3c(N)cc(C(=O)N(C)CC(=O)N(C)C)cn3n2)s1 [Example 98, 8-Amino-2-(5-methyl-thiophen-2-yl)-[1,2,4]triazolo[1,5-a]pyridine-6-carboxylic acid dimethylcarbamoyl-methyl-methyl-amide] |
| 238 nM | CCN(CCOC)C(=O)c1cc(N)c2nc(-c3ccc(C)s3)nn2c1 [Example 99, 8-Amino-2-(5-methyl-thiophen-2-yl)-[1,2,4]triazolo[1,5-a]pyridine-6-carboxylic acid ethyl-(2-methoxy-ethyl)-amide] |
| 178 nM | Cc1ccc(-c2nc3c(N)cc(C(=O)N4CCCC(C)C4)cn3n2)s1 (stereo not shown) [Example 100, [8-Amino-2-(5-methyl-thiophen-2-yl)-[1,2,4]triazolo[1,5-a]pyridin-6-yl]-(3-methyl-piperidin-1-yl)-methanone] |
| 228 nM | CCCN(C)C(=O)c1cc(N)c2nc(-c3ccc(C)s3)nn2c1 [Example 101, 8-Amino-2-(5-methyl-thiophen-2-yl)-[1,2,4]triazolo[1,5-a]pyridine-6-carboxylic acid methyl-propyl-amide] |
| 478 nM | Cc1ccc(-c2nc3c(N)cc(C(=O)N4CCSCC4)cn3n2)s1 [Example 102, [8-Amino-2-(5-methyl-thiophen-2-yl)-[1,2,4]triazolo[1,5-a]pyridin-6-yl]-thiomorpholin-4-yl-methanone] |
| 309 nM | Cc1ccc(-c2nc3c(N)cc(C(=O)N(C)CCc4ccccc4)cn3n2)s1 [Example 103, 8-Amino-2-(5-methyl-thiophen-2-yl)-[1,2,4]triazolo[1,5-a]pyridine-6-carboxylic acid methyl-phenethyl-amide] |
| 564 nM | Nc1cc(C(=O)N2CCCC2)cn2nc(-c3nccs3)nc12 [Example 104, (8-Amino-2-thiazol-2-yl-[1,2,4]triazolo[1,5-a]pyridin-6-yl)-pyrrolidin-1-yl-methanone] |
| 654 nM | CC1CCCN1C(=O)c1cc(N)c2nc(-c3nccs3)nn2c1 (stereo not shown) [Example 105, (8-Amino-2-thiazol-2-yl-[1,2,4]triazolo[1,5-a]pyridin-6-yl)-(2-methyl-pyrrolidin-1-yl)-methanone] |
| 844 nM | CCCCN(C)C(=O)c1cc(N)c2nc(-c3nccs3)nn2c1 [Example 106, 8-Amino-2-thiazol-2-yl-[1,2,4]triazolo[1,5-a]pyridine-6-carboxylic acid butyl-methyl-amide] |
| 632 nM | CC1CCCN(C(=O)c2cc(N)c3nc(-c4nccs4)nn3c2)C1 (stereo not shown) [Example 107, (8-Amino-2-thiazol-2-yl-[1,2,4]triazolo[1,5-a]pyridin-6-yl)-(3-methyl-piperidin-1-yl)-methanone] |
| 988 nM | CN(CCc1ccccc1)C(=O)c1cc(N)c2nc(-c3nccs3)nn2c1 [Example 108, 8-Amino-2-thiazol-2-yl-[1,2,4]triazolo[1,5-a]pyridine-6-carboxylic acid methyl-phenethyl-amide] |

The molecules below were run against T2, hA1 (Homo sapiens, UniProt P30542) (assay: hA1 receptor affinity (Ki)). Settings: list of examples 10-108.
T2 sequence (P30542 1-326): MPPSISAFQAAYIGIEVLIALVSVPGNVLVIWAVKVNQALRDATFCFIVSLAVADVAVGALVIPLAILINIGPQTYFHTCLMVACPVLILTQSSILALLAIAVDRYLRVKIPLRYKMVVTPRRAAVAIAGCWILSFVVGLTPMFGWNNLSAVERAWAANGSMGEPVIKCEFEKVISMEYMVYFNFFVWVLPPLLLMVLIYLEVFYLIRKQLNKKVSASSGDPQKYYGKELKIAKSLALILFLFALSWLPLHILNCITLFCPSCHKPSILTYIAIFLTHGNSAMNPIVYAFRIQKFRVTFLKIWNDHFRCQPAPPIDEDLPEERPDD
Assay type: binding

| Structure (SMILES) | Ki |
| --- | --- |
| COCC1CCCN1C(=O)c1cc(N)c2nc(-c3ccc(Br)o3)nn2c1 (stereo in doubt) [Example 17, [8-Amino-2-(5-bromo-furan-2-yl)-[1,2,4]triazolo[1,5-a]pyridin-6-yl]-((S)-2-methoxymethyl-pyrrolidin-1-yl)-methanone] | 1230 nM |
| CCN(CC)C(=O)c1cc(N)c2nc(-c3ccc(Br)o3)nn2c1 [Example 10, 8-Amino-2-(5-bromo-furan-2-yl)-[1,2,4]triazolo[1,5-a]pyridine-6-carboxylic acid diethylamide] | 2260 nM |
| Nc1cc(C(=O)N2CCCC2)cn2nc(-c3ccc(Br)o3)nc12 [Example 11, [8-Amino-2-(5-bromo-furan-2-yl)-[1,2,4]triazolo[1,5-a]pyridin-6-yl]-pyrrolidin-1-yl-methanone] | 1270 nM |
| CC1CCCN1C(=O)c1cc(N)c2nc(-c3ccc(Br)o3)nn2c1 (stereo not shown) [Example 12, [8-Amino-2-(5-bromo-furan-2-yl)-[1,2,4]triazolo[1,5-a]pyridin-6-yl]-(2-methyl-pyrrolidin-1-yl)-methanone] | 1120 nM |
